Source: PubChem BioAssay (NCI)
Several values for one entry are separate records, joined by “and”; a condition that tells them apart may be missing. Identical values can stand only once.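 Cultured in 96-well plates, cells were exposed to test compound for 48 hours across five concentrations. At the GI50, growth is halved. TGI marks complete inhibition of growth.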

Key:
Assay in all cases: NCI tumour cell line growth inhibition, 48 h
[1] = test system: OVCAR-3 ovarian
[2] = test system: UO-31 renal
[3] = test system: MALME-3M melanoma
[4] = test system: RXF 393 renal
[5] = test system: UACC-257 melanoma
[6] = test system: MDA-MB-435
[7] = test system: SK-MEL-5 melanoma
[8] = test system: OVCAR-8 ovarian
[9] = test system: A549 NSCLC
[10] = test system: HCT-116 colon

Row | Structure (SMILES) | GI50 [1] | TGI [1] [µM] | GI50 [2] | TGI [2] [µM] | GI50 [3] [µM] | TGI [3] [µM] | GI50 [4] [µM] | TGI [4] [µM] | GI50 [5] [µM] | TGI [5] [µM] | GI50 [6] | TGI [6] [µM] | GI50 [7] | TGI [7] | GI50 [8] | TGI [8] [µM] | GI50 [9] | TGI [9] [µM] | GI50 [10] | TGI [10] [µM]
1 | C=C1C(=O)O[C@H]2[C@H]1CC/C(COC(=O)CCCCCC(=O)OC/C1=C/CC[C@@]3(C)O[C@H]3[C@H]3OC(=O)C(=C)[C@@H]3CC1)=C\CC[C@@]1(C)O[C@@H]21 | 1.11 µM | 2.38 | 1.25 µM | 2.86 | 2.09 | 5.08 | 1.1 | 2.41 | 1.93 | 5.63 | 2.58 µM | 8.92 | 1.91 µM | 4.37 µM | 2.65 µM | 9.71 | 10.4 µM | 23.8 |  | 
2 | C=CC(=O)N1CCC(c2ccc(C(N)=O)c(-c3ccc(Oc4ccccc4)cc3)n2)CC1 | 36 µM | > 100 | 12.9 µM | > 100 | 36.1 | > 100 | 12.5 | 53.6 | 27.9 | > 100 | 29.1 µM | > 100 | 20.6 µM | 41.9 µM | 30.9 µM | > 100 | 28.9 µM | > 100 | 35.9 µM | > 100
3 | O=C(CCN1CCCC1)Nc1ccc2c(NCc3ccccc3)c3ccccc3nc2c1 | 0.495 µM | 1.97 | 1.55 µM | 4.05 | 0.605 | 1.99 | 0.349 | 1.38 | 1.45 | 3.3 | 0.481 µM | 1.69 | 1.31 µM | 2.61 µM | 0.452 µM | 2.84 | 0.352 µM | 1.68 | 0.309 µM | 1.31
4 | N#C/C(=C/C=C/c1ccco1)C(N)=O |  | > 10 |  | > 10 |  | > 10 |  | > 10 |  |  |  | > 10 |  | > 10 µM |  | > 10 |  |  |  | 
5 | CC1=CC2C(C(O)CC3(C)C2CC(C)C32OCOC23COCO3)C2(C)C/C(=C/O)C(=O)C=C12 (stereo unspecified) | 2.05 µM | 3.59 | 1.52 µM | 3.04 | 1.84 | 3.58 | 1.81 | 3.31 | 1.82 | 3.86 | 1.78 µM | 3.64 | 1.74 µM | 3.16 µM | 1.76 µM | 3.73 | 3.02 µM | 10.7 | 1.49 µM | 2.97
6 | C#C[C@]1(O)CC[C@H]2[C@@H]3CC=C4c5sc(Nc6cc(F)ccc6F)nc5CC[C@]4(C)[C@H]3CC[C@@]21C | 1.62 µM | 3.16 | 1.14 µM | 2.35 | 1.4 | 2.97 | 0.213 | 0.728 | 1.83 | 4.31 | 2.07 µM | 4.61 | 1.74 µM | 3.16 µM | 2.63 µM | 12.1 | 2.51 µM | 7.86 |  | 
7 | COc1ccc([C@H](CC(=O)O)N2CCN(CCCc3ccc4c(n3)NCCC4)C2=O)cn1 | > 100 µM | > 100 | > 36.7 µM | > 100 | > 100 | > 100 | 0.136 | > 100 |  | > 100 | 0.0216 µM | 0.0602 | 0.0501 µM | 0.173 µM | 0.277 µM | > 40 | 3.07 µM | > 30.3 | 0.202 µM | > 34.7
8 | OC1(c2ccccc2)C2CC=CC2C1(c1ccccc1)c1ccccc1 (stereo unspecified) |  | > 100 |  | > 100 |  | 53 |  | 46.3 |  | 81.4 |  | 62.1 |  | 36.2 µM |  | > 100 |  | > 100 |  | > 100
9 | COC(=O)c1cc(-c2ccccc2)[nH]c1N/N=C/c1c(Cl)cccc1Cl | 0.17 µM | 0.356 | 0.609 µM | > 56.3 | 0.34 | 6.67 | 0.616 | 52 | 3.58 | 41.3 | 0.0311 µM | 0.119 | 0.335 µM | 1.89 µM | 0.473 µM | > 100 | 0.501 µM | > 44.1 | 0.318 µM | 1.71
10 | COc1ccc(/C=C(/c2ccccc2)[N+](=O)[O-])c(OC)c1 | 1.69 µM | 3.09 | 1.23 µM | 2.47 | 1.58 | 3.3 | 1.53 | 3.03 | 1.55 | 3.38 | 1.45 µM | 2.97 | 1.79 µM | 3.26 µM | 1.66 µM | 5.14 | 2.32 µM | 6.66 | 1.02 µM | 2.29
11 | O=C(O)C[C@H](O)C[C@H](O)/C=C/c1c(C2CC2)nc2ccccc2c1-c1ccc(F)cc1 | 16.8 µM and 12.1 µM | > 100 | 16 µM and 3.48 µM | > 100 | > 100 | > 100 |  |  | > 100 | > 100 | 14.6 µM and 6.04 µM | > 100 | 12.8 µM and 1.32 µM | 31.1 µM and 3.56 µM | 7.63 µM and 2.17 µM | > 100 | > 100 µM and 18.7 µM | > 100 | 5.8 µM and 1.25 µM | > 100
12 | Cn1cnc(N)c(N=O)c1=O |  | > 10 |  |  |  | > 10 |  | > 10 |  | > 10 |  | > 10 |  | > 10 µM |  | > 10 |  | > 10 |  | > 10
13 | C=C(C)[C@@H]1CCC=C2CC[C@]3(C)[C@H](CC[C@@H]4[C@@]5(C)CCCNC(C)(C)[C@@H]5CC[C@]43C)[C@H]21 | 1.8 µM | 3.29 | 1.53 µM | 2.99 | 1.77 | 3.74 | 1.63 | 3.13 | 3.34 | 9.32 | 1.66 µM | 3.11 | 3.58 µM | 14 µM |  |  | 2.04 µM | 3.86 | 1.79 µM | 3.2
14 | O=[N+]([O-])c1ccc(NN=C2CN3CCN(C2)c2ccccc23)c([N+](=O)[O-])c1 |  | > 100 |  | > 100 |  | > 100 |  |  |  | > 100 |  | > 100 |  | > 100 µM |  | > 100 |  | > 100 |  | > 100
